The values that follow come from article PMC4830392 (Biochemical pharmacology, 2015).

The assay has as its target OXE receptor (Felis catus, UniProt A0ABI7XKF2). The assay is described as follows: actin polymerization. The class given is cell-based.

Sequence of OXE receptor (A0ABI7XKF2 1-379): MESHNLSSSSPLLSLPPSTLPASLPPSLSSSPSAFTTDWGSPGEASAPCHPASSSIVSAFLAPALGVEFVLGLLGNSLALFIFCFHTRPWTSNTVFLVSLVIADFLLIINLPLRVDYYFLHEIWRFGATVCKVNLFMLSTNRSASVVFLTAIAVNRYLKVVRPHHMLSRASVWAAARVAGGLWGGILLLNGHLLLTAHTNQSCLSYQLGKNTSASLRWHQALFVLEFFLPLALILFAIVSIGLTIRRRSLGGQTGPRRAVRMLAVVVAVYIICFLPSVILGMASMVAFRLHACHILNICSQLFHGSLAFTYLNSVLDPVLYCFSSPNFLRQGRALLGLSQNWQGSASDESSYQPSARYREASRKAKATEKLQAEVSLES

The term EC50 denotes the concentration that produces a half-maximal response. Low values mean greater potency, high ones weaker potency. Regarding `CCCCC/C=C\C/C=C\C/C=C\C=C\C(=O)CCCC(=O)O` [5-oxo-ETE, 5-oxo-6E,8Z,11Z,14Z-eicosatetraenoic acid], a half-maximal effect (EC50) was put at 0.72 nM.
